Values after ≈ are worked out from the molar mass of the structure shown. Where two headings read alike, the source gives them in different places.

Format in all cases: cell-based
One test has as its system E. faecalis (ATCC 29212). Put plainly: Antibacterial susceptibility testing (MIC, broth microdilution or agar dilution), E. faecalis. How it is done:
Compounds of the invention were tested for antimicrobial activity by susceptibility testing in liquid or on solid media. MICs for compounds against each strain were determined by the broth microdilution or agar dilution method according to the guidelines of the Clinical Laboratories and Standards Institute, formerly the National Committee for Clinical Laboratory Standards (Clinical Laboratories and Standards Institute. Methods for Dilution Antimicrobial Susceptibility Tests for Bacteria That Grow Aerobically; Approved Standard—Seventh Edition. Document M7-A7. CLSI, Wayne, Pa., 2006; Clinical Laboratories and Standards Institute. The Gram positive bacterial strains tested include S. aureus (Staphylococcus aureus (Isolate ID ATCC 29213)), E. faecalis (Enterococcus faecalis (Isolate ID ATCC 29212)) and S. pyogenes (Streptococcus pyogenes (Isolate ID ATCC 51339)). The Gram negative bacterial strains tested include H. influenzae (Haemophilus influenzae (Isolate ID ATCC 49247)).

Another test has as its system S. pyogenes (ATCC 51339). Nature of the test: Antibacterial susceptibility testing (MIC, broth microdilution or agar dilution), S. pyogenes. The settings on record: Streptococcus pyogenes, ATCC51339; read-out: S. pyogenes (ATCC 51339) minimal inhibitory concentration (MIC). The gist of the method: (§1)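 MICs by CLSI (M7-A7) broth microdilution or agar dilution, against reference ATCC strains as listed.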

For a further test, the system named is S. aureus (ATCC 29213). Put plainly: Antibacterial susceptibility testing (MIC, broth microdilution or agar dilution), S. aureus. The gist of the method: as §1
The mark [1] stands for this setting: Enterococcus faecalis, ATCC29212; read-out: E. faecalis (ATCC 29212) minimal inhibitory concentration (MIC).
The mark [2] stands for this setting: Staphylococcus aureus, ATCC29213; read-out: S. aureus (ATCC 29213) minimal inhibitory concentration (MIC).

As to `CCNC(=O)Nc1cc(NCc2cccnc2)c(C(=O)Nc2ccccc2)cn1` [Compound 25, 6-(3-ethylureido)-N-phenyl-4-(pyridin-3-ylmethylamino)nicotinamide], the values for the MIC in the test with E. faecalis (ATCC 29212) (setting [1]) and in the test with S. pyogenes (ATCC 51339) were 2 µg/mL (≈ 5.12 µM) and 8 µg/mL (≈ 20.5 µM), respectively. For `CCNC(=O)Nc1cc(NCc2cccnc2)c(C(=O)Nc2cccnc2)cn1` [Compound 26, 6-(3-ethylureido)-N-(pyridin-3-yl)-4-(pyridin-3-ylmethylamino)nicotinamide], the MIC with E. faecalis (ATCC 29212) (setting [1]) and in the test with S. pyogenes (ATCC 51339) was 8 µg/mL (≈ 20.4 µM) in each case. Regarding `CCNC(=O)Nc1cc(Nc2ccccc2)c(C(=O)Nc2ccc(C(=O)NC)cc2)cn1` [Compound 213, 6-[(ethylcarbamoyl)amino]-N-[4-(methylcarbamoyl)phenyl]-4-(phenylamino)pyridine-3-carboxamide], the MIC in the test on E. faecalis (ATCC 29212) (setting [1]) was not above 1 µg/mL; in the test with S. aureus (ATCC 29213) (setting [2]), 4 µg/mL (≈ 9.25 µM). With `CCNC(=O)Nc1cc(Nc2cc(F)cc(F)c2)c(C(=O)Nc2ccc(CCC(=O)OCC)cc2)cn1` [Compound 234, ethyl 3-{4-[({4-[(3,5-difluorophenyl)amino]-6-[(ethylcarbamoyl)amino]pyridin-3-yl}carbonyl)amino]phenyl}propanoate], the MIC with E. faecalis (ATCC 29212) (setting [1]) was not above 1 µg/mL. As to `CCNC(=O)Nc1cc(Nc2ccccc2)c(C(=O)Nc2ccccc2)nn1` [Compound 212, 6-[(ethylcarbamoyl)amino]-N-phenyl-4-(phenylamino)pyridazine-3-carboxamide], the MIC with E. faecalis (ATCC 29212) (setting [1]) is 8 µg/mL (≈ 21.3 µM). The same measure, in the same setting: as for `CCNC(=O)Nc1cc(Nc2ccc(F)cc2F)c(C(=O)Nc2ccc(CCC(=O)OCC)cc2)cn1` [Compound 227], the figure is not above 1 µg/mL. Turning to `CCNC(=O)Nc1cc(Nc2ccc(F)c(Cl)c2)c(C(=O)Nc2ccc(CCC(=O)OCC)cc2)cn1` [Compound 226, ethyl 3-{4-[({4-[(3-chloro-4-fluorophenyl)amino]-6-[(ethylcarbamoyl)amino]pyridin-3-yl}carbonyl)amino]phenyl}propanoate], the MIC was not above 1 µg/mL in the test on E. faecalis (ATCC 29212) (setting [1]) and 2 µg/mL (≈ 3.79 µM) with S. aureus (ATCC 29213) (setting [2]).

As to `CCNC(=O)Nc1cc(Nc2ccc(F)c(C)c2)c(C(=O)Nc2ccc(CCC(=O)OCC)cc2)cn1` [Compound 218, ethyl 3-{4-[({6-[(ethylcarbamoyl)amino]-4-[(4-fluoro-3-methylphenyl)amino]pyridin-3-yl}carbonyl)amino]phenyl}propanoate], in the test with E. faecalis (ATCC 29212) (setting [1]), the MIC was not above 1 µg/mL. On to `CCNC(=O)Nc1cc(Nc2ccc(F)c(F)c2)c(C(=O)Nc2ccc(CCC(=O)OCC)cc2)cn1` [Compound 215, ethyl 3-{4-[({4-[(3,4-difluorophenyl)amino]-6-[(ethylcarbamoyl)amino]pyridin-3-yl}carbonyl)amino]phenyl}propanoate], for which the MIC with E. faecalis (ATCC 29212) (setting [1]) and in the test with S. aureus (ATCC 29213) (setting [2]) was not above 1 µg/mL each time. As to `CCNC(=O)Nc1cc(Nc2ccc(Cl)cc2F)c(C(=O)Nc2ccc(CCC(=O)OCC)cc2)cn1` [Compound 219, ethyl 3-{4-[({4-[(4-chloro-2-fluorophenyl)amino]-6-[(ethylcarbamoyl)amino]pyridin-3-yl}carbonyl)amino]phenyl}propanoate], the MIC in the test with E. faecalis (ATCC 29212) (setting [1]) was not above 1 µg/mL.

Regarding `CCNC(=O)Nc1cc(Nc2ccccc2)c(C(=O)Nc2ccn(CC(=O)O)n2)cn1` [Compound 233, {3-[({6-[(ethylcarbamoyl)amino]-4-(phenylamino)pyridin-3-yl}carbonyl)amino]-1H-pyrazol-1-yl}acetic acid], the MIC in the test with E. faecalis (ATCC 29212) (setting [1]) is 2 µg/mL (≈ 4.72 µM). On the same count and under the same terms, as for `CCNC(=O)Nc1cc(Nc2ccc(C)c(F)c2)c(C(=O)Nc2ccc(CCC(=O)OCC)cc2)cn1` [Compound 217, ethyl 3-{4-[({6-[(ethylcarbamoyl)amino]-4-[(3-fluoro-4-methylphenyl)amino]pyridin-3-yl}carbonyl)amino]phenyl}propanoate], the figure is not above 1 µg/mL; as for `CCNC(=O)Nc1cc(Nc2cccc(F)c2)c(C(=O)Nc2ccc(CCC(=O)OCC)cc2)cn1` [Compound 216, ethyl 3-{4-[({6-[(ethylcarbamoyl)amino]-4-[(3-fluorophenyl)amino]pyridin-3-yl}carbonyl)amino]phenyl}propanoate], not above 1 µg/mL. As for `CCNC(=O)Nc1cc(Nc2ccc(C#N)cc2)c(C(=O)Nc2ccc(CN3CCCC3)cc2)cn1` [Compound 203, 4-[(4-cyanophenyl)amino]-6-[(ethylcarbamoyl)amino]-N-[4-(pyrrolidin-1-ylmethyl)phenyl]pyridine-3-carboxamide], the MIC with E. faecalis (ATCC 29212) (setting [1]) is not above 1 µg/mL; in the test with S. aureus (ATCC 29213) (setting [2]), 2 µg/mL (≈ 4.14 µM). For `CCNC(=O)Nc1cc(Nc2ccccc2)c(C(=O)Nc2ccc(-n3cncn3)nc2)cn1` [Compound 27, N-(6-(1H-1,2,4-triazol-1-yl)pyridin-3-yl)-6-(3-ethylureido)-4-(phenylamino)nicotinamide], in the test on E. faecalis (ATCC 29212) (setting [1]), the MIC is not above 1 µg/mL. `CCNC(=O)Nc1cc(Nc2ccc(F)cc2)c(C(=O)Nc2ccc(CN3CCCC3)cc2)cn1` [Compound 200, 6-[(ethylcarbamoyl)amino]-4-[(4-fluorophenyl)amino]-N-[4-(pyrrolidin-1-ylmethyl)phenyl]pyridine-3-carboxamide]: the MIC amounted to 2 µg/mL (≈ 4.2 µM) with E. faecalis (ATCC 29212) (setting [1]) and 8 µg/mL (≈ 16.8 µM) in the test on S. aureus (ATCC 29213) (setting [2]).

For the compound `CCNC(=O)Nc1cc(Nc2ccccc2)c(C(=O)Nc2ccc(CP(=O)(O)O)cc2)cn1` [Compound 207, {4-[({6-[(ethylcarbamoyl)amino]-4-(phenylamino)pyridin-3-yl}carbonyl)amino]benzyl}phosphonic acid], the MIC in the test on E. faecalis (ATCC 29212) (setting [1]) turned out to be 8 µg/mL (≈ 17 µM). With `CCNC(=O)Nc1cc(Nc2ccc(Cl)cc2)c(C(=O)Nc2ccc(-n3cccc3C(=O)OC)cc2)cn1` [Compound 197, methyl 1-{4-[({4-[(4-chlorophenyl)amino]-6-[(ethylcarbamoyl)amino]pyridin-3-yl}carbonyl)amino]phenyl}-1H-pyrrole-2-carboxylate], the MIC in the test on E. faecalis (ATCC 29212) (setting [1]) worked out at 4 µg/mL (≈ 7.5 µM).

Regarding `CCNC(=O)Nc1cc(Nc2ccccc2)c(C(=O)Nc2ccnc(C(=O)OC)c2)cn1` [Compound 21, methyl 4-(6-(3-ethylureido)-4-(phenylamino)nicotinamido)picolinate], in the test with E. faecalis (ATCC 29212) (setting [1]), the MIC is not above 1 µg/mL. Turning to `CCNC(=O)Nc1cc(Nc2ccccc2)c(C(=O)Nc2ccc(CN3CCS(=O)(=O)CC3)cc2)cn1` [Compound 214, N-{4-[(1,1-dioxidothiomorpholin-4-yl)methyl]phenyl}-6-[(ethylcarbamoyl)amino]-4-(phenylamino)pyridine-3-carboxamide], the MIC in the test on E. faecalis (ATCC 29212) (setting [1]) was not above 1 µg/mL; in the test with S. aureus (ATCC 29213) (setting [2]), 4 µg/mL (≈ 7.65 µM). In the same order, the values of `CCNC(=O)Nc1cc(Nc2cc(Cl)cc(Cl)c2)c(C(=O)Nc2ccc(CCC(=O)OCC)cc2)cn1` [Compound 225, ethyl 3-{4-[({4-[(3,5-dichlorophenyl)amino]-6-[(ethylcarbamoyl)amino]pyridin-3-yl}carbonyl)amino]phenyl}propanoate] are not above 1 µg/mL and 4 µg/mL (≈ 7.35 µM).

Consider `CCNC(=O)Nc1cc(Nc2ccc(C#N)cc2)c(C(=O)Nc2ccc(CN3CCN(C)CC3)cc2)cn1` [Compound 205, 4-[(4-cyanophenyl)amino]-6-[(ethylcarbamoyl)amino]-N-{4-[(4-methylpiperazin-1-yl)methyl]phenyl}pyridine-3-carboxamide], for which the MIC with E. faecalis (ATCC 29212) (setting [1]) is not above 1 µg/mL; in the test with S. aureus (ATCC 29213) (setting [2]) it was 2 µg/mL (≈ 3.9 µM). Regarding `CCNC(=O)Nc1cc(Nc2ccccc2)c(C(=O)Nc2ccc(CP(=O)(OCC)OCC)cc2)cn1` [Compound 206], the MIC is not above 1 µg/mL with E. faecalis (ATCC 29212) (Enterococcus faecalis, ATCC29212, read-out: E. faecalis (ATCC 29212) minimal inhibitory concentration (MIC)) and not above 1 µg/mL in the test on S. aureus (ATCC 29213) (Staphylococcus aureus, ATCC29213, read-out: S. aureus (ATCC 29213) minimal inhibitory concentration (MIC)).

On to `CCNC(=O)Nc1cc(Nc2ccc(F)cc2)c(C(=O)Nc2ccc(CN3CCN(C)CC3)cc2)cn1` [Compound 202, 6-[(ethylcarbamoyl)amino]-4-[(4-fluorophenyl)amino]-N-{4-[(4-methylpiperazin-1-yl)methyl]phenyl}pyridine-3-carboxamide], for which the MIC in the test on E. faecalis (ATCC 29212) (setting [1]) came out at 2 µg/mL (≈ 3.96 µM); with S. aureus (ATCC 29213) (setting [2]), 8 µg/mL (≈ 15.8 µM).

Consider `CCNC(=O)Nc1cc(Nc2ccccc2)c(C(=O)NCc2ccncc2)cn1` [Compound 51, 6-(3-ethylureido)-4-(phenylamino)-N-(pyridin-4-ylmethyl)nicotinamide], for which the MIC amounted to 32 µg/mL (≈ 82 µM) with S. aureus (ATCC 29213) (setting [2]) and 2 µg/mL (≈ 5.12 µM) in the test with S. pyogenes (ATCC 51339). In the same order, the values of `CCNC(=O)Nc1cc(Nc2ccccc2)c(C(=O)Nc2cccc(F)c2)cn1` [Compound 56, 6-(3-ethylureido)-N-(3-fluorophenyl)-4-(phenylamino)nicotinamide] are not above 1 µg/mL and 2 µg/mL (≈ 5.08 µM).

In the case of `CCNC(=O)Nc1cc(Nc2cccc(C(=O)OC)c2)c(C(=O)Nc2cccnc2)cn1` [Compound 97, methyl 3-(2-(3-ethylureido)-5-(pyridin-3-ylcarbamoyl)pyridin-4-ylamino)benzoate], the values for the MIC with S. aureus (ATCC 29213) (setting [2]) and with S. pyogenes (ATCC 51339) were 2 µg/mL (≈ 4.6 µM) and 32 µg/mL (≈ 73.7 µM), respectively. As to `CCNC(=O)Nc1cc(Nc2ccc(F)cc2)c(C(=O)Nc2ccc(CN3CCOCC3)cc2)cn1` [Compound 201, 6-[(ethylcarbamoyl)amino]-4-[(4-fluorophenyl)amino]-N-[4-(morpholin-4-ylmethyl)phenyl]pyridine-3-carboxamide], the MIC in the test on E. faecalis (ATCC 29212) (setting [1]) is not above 1 µg/mL; with S. aureus (ATCC 29213) (setting [2]) it was 2 µg/mL (≈ 4.06 µM). As for `CCNC(=O)Nc1cc(Nc2ccccc2)c(C(=O)Nc2ccc(OC)nc2)cn1` [Compound 63, 6-(3-ethylureido)-N-(6-methoxypyridin-3-yl)-4-(phenylamino)nicotinamide], the MIC in the test on S. aureus (ATCC 29213) (setting [2]) and in the test on S. pyogenes (ATCC 51339) was not above 1 µg/mL each time.
